Legend:
[1] = LPO method: MDA and 4HNE from oxidation of linoleic acid (OD586 nm); conditions: for OD586 nm of the APP test / OD586 nm of the ascorbate test: 24° C. in the dark for 10 days
Description: (§1) The following five methods were used to evaluate compounds in accordance with the present invention. […] Note: both MDA and 4-HNE are the oxidation products of polyunsaturated fatty acids from lipids. • 3. β-carotene method was used to measure the protection of β-carotene oxidation by lipid peroxide in the presence of an added anti-oxidant. • 4. DPPH (1,1-diphenyl-2-picrylhydrazyl) method was used to measure the radical scavenging activity of an anti-oxidant towards the radical DPPH. • 5. polyphenol oxidase (PPO) method was used to measure the inhibition of polyphenol oxidase in vegetables, fruits and mushrooms.
Principle and Goal: A major area for use of antioxidants in food-related products are their ability to prevent the oxidation of polyunsaturated fatty acids in lipids. The oxidation of lipids and fatty acids is a major problem in food.
Assay Conditions: The assay of MDA and 4HNE was performed by the LPO method, using the assay kit from OXIS International, Inc. (Portland, Oreg., USA) and according to their protocol. The assay mixture for the blank contained linoleic acid and Tween 40. For the tests, APP or sodium ascorbate was added. After incubation at 24° C. in the dark for 10 days, the samples were assayed for MDA and 4HNE contents as indicated by their absorbance at 586 nm as given in Table 3. Higher OD586 nm values indicate higher content of MDA and 4HNE, and therefore more degradation of linoleic acid.

[2] = disclosed tests of reference [3]; cited from earlier work
[3] = test system: mushroom polyphenol oxidase (PPO); assay: Polyphenol oxidase (PPO) inhibition, tyrosine substrate, absorbance at 475 nm; format: biochemical; conditions: for OD475 nm (browning product formation): 10 ppm APP, 24° C., pH 6.5
Procedure: Principle and Goal: PPO is one of the enzymes involved in oxidative browning of vegetables and fruits. […] Blank: To 20 μl PPO (20 units, from mushroom. Sigma product. EC 1.14.18.1) was added 0.45 ml water, 0.43 ml phosphate buffer (0.2M Na2HPO4—NaH2PO4, pH6.5), so the final volume was 0.9 ml Control: To 20 μl PPO was added 0.15 ml water, 0.43 ml phosphate buffer (0.2M Na2HPO4—NaH2PO4, pH6.5), then 0.3 ml tyrosine (1 mM, BDH product). Time course progress of the reaction was monitored at room temperature (24° C.) at 475 nm by using a Perkin Elmer UV/VIS Lambda 18 spectrophotometer. Test: To 20 μl PPO was added 0.143 ml water, 7 μl APP (final 10 ppm), 0.430 ml phosphate buffer (0.2M Na2HPO4—NaH2PO4, pH6.5), then 0.3 ml tyrosine (1 mM, BDH product). Time course progress of the reaction was monitored as above. Table 1. Inhibition of 10 ppm APP on polyphenol oxidase (PPO) as indicated by very slow increase at absorbance 475nm compared to control. Higher values at OD475 nm indicate more browning product formation.

[4] = β-carotene method: de-coloration of beta-carotene by oxygen and oxidative intermediates of linoleic acid (OD470 nm)
Description: as §1
Principle and Goal: Carotenes are one of the pigments which may be used to give a healthy colour to food or drinks. They are therefore used as food colorant. β-Carotene is also the precursor for vitamin A. Carotenoid molecules are highly unsaturated and are prone to oxidative degradation; which is stimulated by light, enzymes, metals, and co-oxidation with lipid hydroperoxides.
In the system used, beta-carotene was exposed to oxygen and the oxidative intermediates of linoleic acid.
The assay was performed according to H. E. Miller (JAOSC (1970) 48: 91). The assay system consisted of beta-carotene, linoleic acid, and Tween 40. In the blank, no anti-oxidant was added, while in the tests, either APP in a concentration of 2.5-25 ppm or sodium ascorbate in a concentration of 100-500 ppm was added. The mixtures were incubated in the dark for the time and temperature indicated (see Table 2.1 and 2.2). The absorbance was then measured at 470 nm. The absorbance provided an indication of beta-carotene content. Lower OD470 nm values indicate more degradation of beta-carotene.

apple slices = assay: Browning of apple slices (Example 1, FIG. 2); conditions: prolonged period, weeks or months, at room temperature
Description: Compounds of the present invention were investigated as an anti-browning agent in vegetable and fruit products.

O=C1C(O)=COC(CO)C1O [APP, 1,5-Anhydro-D-glycero-hex-1-en-3-ulose]
Effect on oxidation of linoleic acid (in words) [1]: able to delay the oxidation of linoleic acid | OD586 nm of the APP test ([1]; 2.5 ppm, higher OD = more MDA and 4HNE): 0.358 | Efficiency in delaying the oxidative degradation of linoleic acid compared with ascorbic acid ([1]; 6.2 ppm APP, FIG. 5): almost as efficient as 300 ppm ascorbic acid | OD586 nm of the APP test ([1]; 6.2 ppm): 0.100 | OD586 nm of the APP test ([1]; 12.5 ppm): 0.084 | Function as an antibiotic [2]: did not function satisfactorily as an antibiotic | Inhibition of PPO (in words) [3]: efficient inhibitor | OD475 nm (browning product formation) ([3]; reaction time 0 min): 0 | OD475 nm (browning product formation) ([3]; reaction time 1 min): 0 | OD475 nm (browning product formation) ([3]; reaction time 3 min): 0 | OD475 nm (browning product formation) ([3]; reaction time 5 min): 0 | OD475 nm (browning product formation) ([3]; reaction time 7 min): 0.0005 | OD475 nm (browning product formation) ([3]; reaction time 9 min): 0.0017 | OD475 nm (browning product formation) ([3]; reaction time 11 min): 0.0033 | OD475 nm (browning product formation) ([3]; reaction time 13 min): 0.0056 | OD475 nm (browning product formation) ([3]; reaction time 15 min): 0.0082 | OD475 nm (browning product formation) ([3]; reaction time 17 min): 0.0122 | OD475 nm (browning product formation) ([3]; reaction time 19 min): 0.0178 | OD475 nm (browning product formation) ([3]; reaction time 20 min): 0.0209 | Effect on oxidative de-coloration of beta-carotene (in words) [4]: delayed the oxidative de-coloration of beta-carotene | The OD470 nm of the APP test ([4]; 2.5 ppm, 37° C. for 161 min in the dark, lower OD = more degradation): 0.264 | The OD470 nm of the APP tests ([4]; 2.5 ppm, 37° C. for 161 min then 24° C. for 17.5 hours in the dark): 0.173 | The OD470 nm of the APP test ([4]; 6.2 ppm, 37° C. for 161 min in the dark): 0.314 | The OD470 nm of the APP tests ([4]; 6.2 ppm, 37° C. for 161 min then 24° C. for 17.5 hours in the dark): 0.270 | The OD470 nm of the APP test ([4]; 12.5 ppm, 37° C. for 161 min in the dark): 0.322 | The OD470 nm of the APP tests ([4]; 12.5 ppm, 37° C. for 161 min then 24° C. for 17.5 hours in the dark): 0.274 | The OD470 nm of the APP test ([4]; 25 ppm, 37° C. for 161 min in the dark): 0.326 | The OD470 nm of the APP tests ([4]; 25 ppm, 37° C. for 161 min then 24° C. for 17.5 hours in the dark): 0.263 | Effectiveness relative to ascorbic acid in preventing the de-coloration of β-carotene ([4]; FIG. 4): around 100 times

O=c1cc(CO)occ1O [kojic acid]
Prevention of browning of apple slices (apple slices): completely prevent browning | Inhibition of PPO (in words) [3]: inhibited

O=C1O[C@H]([C@@H](O)CO)C([O-])=C1O.[Na+] [Sodium ascorbate, sodium ascorbate, reference compound]
OD586 nm of the ascorbate test ([1]; 100 ppm): 0.279 | OD586 nm of the ascorbate test ([1]; 300 ppm): 0.097 | OD586 nm of the ascorbate test ([1]; 500 ppm): 0.032 | The OD470 nm of the ascorbate test ([4]; 100 ppm, 37° C. for 161 min in the dark): −0.01 | The OD470 nm of the ascorbate test ([4]; 100 ppm, 37° C. for 161 min then 24° C. for 17.5 hours in the dark): −0.006 | The OD470 nm of the ascorbate test ([4]; 300 ppm, 37° C. for 161 min in the dark): 0.096 | The OD470 nm of the ascorbate test ([4]; 300 ppm, 37° C. for 161 min then 24° C. for 17.5 hours in the dark): 0.102 | The OD470 nm of the ascorbate test ([4]; 500 ppm, 37° C. for 161 min in the dark): 0.191 | The OD470 nm of the ascorbate test ([4]; 500 ppm, 37° C. for 161 min then 24° C. for 17.5 hours in the dark): 0.200

O=C1O[C@H]([C@@H](O)CO)C(O)=C1O [ascorbic acid, reference compound]
Prevention of browning of apple slices (apple slices): unable to do so

— patent US6846505B2, “Anti-oxidant” (Danisco A/S, priority 1999, dated 2005)
